{"source": "patent US20110239327A1", "about": "“Nematicidal Effects of Cysteine Proteinases and Methods of Use Thereof to Treat Nematode Infestation” (priority 2007, published 2011)", "key": {"Meloidogyne spp. J2s": {"tested_on": "Meloidogyne spp. J2s", "test": "In vitro mobility of Meloidogyne spp. J2s exposed to plant cysteine proteinases", "format": "cell-based, M. incognita or M. javanica", "experimental": "Eggs of M. incognita race 1 from North Carolina State University, USA, and M. javanica from Portugal were collected from the roots of infected tomato plants grown in a glasshouse at 23° C. in a 16:8 h light-dark regime. Eggs were extracted using 1% hypochlorite (NaClO) solution (Hussey and Barker, 1973) or by picking egg masses from the infected roots. M. incognita and M. javanica were both used in the experiments and produced similar results. Juveniles (J2) were hatched from the eggs and egg masses in water. Globodera rostochiensis cysts were washed extensively in distilled water. Hatched J2s were obtained by incubating cysts in distilled water for 4 days followed by exposure to potato root diffusate (PRD).\nApproximately 1000 J2s (second juvenile stage) of M. incognita or M. javanica were incubated per well of a 48-well plate with the following active enzyme concentrations (determined by E-64 titration) of papain dissolved in distilled water containing 16 mM L-cysteine (to activate the cysteine proteinase): 1.5 μM, 3 μM, 6.25 μM, 12.5 μM, 25 μM, 50 μM, 75 μM and 100 μM. […] The number of active J2s per well was counted prior to the addition of papain, and then the J2s were incubated in the dark at room temperature for 3 h. The number of mobile J2s per well was counted after 60, 120 and 180 mins. […]"}, "larvae in infected soil": {"tested_on": "larvae in infected soil", "details": "cited from earlier work"}, "M. incognita J2 [1]": {"tested_on": "M. incognita J2", "test": "In planta bioassay, two soil applications: nematode infection of tomato roots", "format": "in vivo, M. incognita on tomato plants", "experimental": "Oxamyl is supplied as 10% liquid Vydate. 125 μl of a solution 1000 fold dilution of 10% formulation (kindly supplied by DK from NIU) was applied to 5 g of the soil mixture with 16% organic matter, to give a partial nematicidal effect. Soil mixtures were wetted with PBS pH 7.2, 16 hrs prior nematode application of 1000 or 2000 M. incognita J2. Infected soil mixtures were treated with water (control) or 250 μM of active papain in 16 mM of L-cysteine or a combination of Vydate and 250 μM of active papain in 16 mM of L-cysteine. After 48 hs tomato seedlings one month old were added to the treated soils. After 11 days the roots were washed free of soil and chopped to approximately 2 mm pieces. The root pieces of each tomato plant was placed in muslin bags and stained with acid-fuchsin. The stained roots were examined under microscope and all the nematodes present in the roots were counted. […] After 48 hours tomato seedlings one month old were added to the treated soils and after 11 days post infection nematode development inside root tissues was assessed as described above.\nThe avermectins are macrocyclic lactones produced by the actinomycete Streptomyces avermitilis. […] After 48 hs tomato seedlings one month old were added to the treated soils and after 11 days post infection nematode development inside root tissues was assessed as described above. […]"}, "M. incognita J2 [2]": {"tested_on": "M. incognita J2", "test": "In vitro assay of M. incognita J2 present in soil mixtures", "format": "cell-based", "details": "Triton x-100 (1%), Milk (5%)", "experimental": "The same procedure described above was used to determine the effect of the cysteine proteinases against M. incognita J2 present in soil mixtures. The following soil mixtures were used: fine and coarse sand, peat and fine/coarse sand and loam mix and fine/coarse sand. These soil mixtures were prepared at concentrations of 1:1, 1:3 and 1:6 and autoclaved at […] for 20 min. Peat and loam-mix were obtained from Rothamsted-Research. Soil mixtures were added to 24 well plates (0.5 g) and wetted for 16 hs with either PBS ph 7.2, Tx-100, Milk 5% or cysteine proteinases, in order to wet the soil and block non-specific binding sites present in the soil particles. Then, approximately 100 J2 were added to the wells, followed by cysteine proteinases with 16 mM of L-cysteine to activate the cysteine proteinases or water as control. After 16 hs at room temperature in the dark, individual wells of the 24 well plates were flushed with 1 ml of distilled water to recover the nematodes from the soil mixtures. These were placed in a 24 well plate and the number of dead/live nematodes scored under microscopic observation.\nThese in vitro experiments were performed in 24 well plates using sterile soil mixtures to diminish the possibility of biological degradation of the enzyme by microorganisms. […] The number of live nematodes was counted before and after enzyme treatment. […]"}, "Pratylenchus penetrans": {"tested_on": "Pratylenchus penetrans", "test": "In vitro live/dead count of Pratylenchus penetrans", "format": "cell-based", "experimental": "(§1) Eggs of M. incognita race 1 from North Carolina State University, USA were collected from tomato-infected roots grown in a glasshouse at 23° C. in a 16:8 h light-dark regime. Eggs were extracted using 1% hypochlorite (NaClO) solution (Hussey and Barker, 1973) or by picking egg masses from tomato-infected roots. Juveniles (J2) were hatched from the eggs and egg masses in water. Heterodera glycines eggs were obtained from soil samples stored in Rothamsted-Research. Second stage juveniles (J2) were hatched from the eggs in water after 10 days. Pratylenchus penetrans were a gift from Dr. Deeren Anne-Marie from the Institute for Agricultural and Fisheries Research, Merelbeke, Belgium. The beneficial nematodes Steinernema feltiae and Heterorhabditis megidis were a gift from Dr. Paul Williams from Becker Underwood.\nControl wells were set up which contained J2s and distilled water with 16 mM L-cysteine. Each enzyme concentration and the controls were set up in duplicate (i.e. n=2). […] The number of live and dead J2s per well was counted after each enzyme incubation. The same procedure was followed when setting up further experiments to compare the effects of these enzymes with Heterodera glycines J2, Pratylenchus penetrans, Steinernema feltiae and Heterorhabditis megidis."}, "Steinernema feltiae": {"tested_on": "Steinernema feltiae", "test": "In vitro effect on the beneficial nematode Steinernema feltiae", "format": "cell-based", "experimental": "as §1\n(§2) Control wells were set up which contained J2s and distilled water with 16 mM L-cysteine. Each enzyme concentration and the controls were set up in duplicate (i.e. n=2). The actual number of active J2s per well was counted with the aid of an Olympus inverted microscope, prior to the addition of the enzymes, and then the J2s were incubated in the dark at room temperature for 2 hs, 16 hs, 24 hs or 40 hr. The number of live and dead J2s per well was counted after each enzyme incubation. […]"}, "M. incognita J2 [3]": {"tested_on": "M. incognita J2", "test": "In vitro live/dead count of M. incognita J2 in solution without soil (Example 2)", "format": "cell-based", "experimental": "as §1, with “Underwood. […]” for “Underwood.”\nas §2, with “Each enzyme concentration and the controls were set up in duplicate (i.e. n=2).” left out"}, "Heterorhabditis megidis": {"tested_on": "Heterorhabditis megidis", "test": "In vitro effect on the beneficial nematode Heterorhabditis megidis", "format": "cell-based", "experimental": "as §1\nControl wells were set up which contained J2s and distilled water with 16 mM L-cysteine. Each enzyme concentration and the controls were set up in duplicate (i.e. n=2). The actual number of active J2s per well was counted with the aid of an Olympus inverted microscope, prior to the addition of the enzymes, and then the J2s were incubated in the dark at room temperature for 2 hs, 16 hs, 24 hs or 40 hr. The number of live and dead J2s per well was counted after each enzyme incubation. The same procedure was followed when setting up further experiments to compare the effects of these enzymes with Heterodera glycines J2, Pratylenchus penetrans, Steinernema feltiae and Heterorhabditis megidis.\nThe beneficial nematodes Hetorhabditis megidis and Steinernema feltiae were incubated with dilutions of actinidin, bromelain and pappain from papaya latex (see concentrations used in table 3). These nematodes reacted differentially to these cysteine proteinases (Tables 4 and 5). […] S. feltiae were dead at all concentrations of actinidin tested. […] After 16 hs of observation the enzyme solutions were diluted with water (to half of the initial concentrations) however, no change in nematode movement was observed after 24 hs."}}, "note": "Entries after “also recorded” stand apart in the source; their conditions may differ.", "data": [{"compound": "CC(C)C[C@H](NC(=O)[C@H]1O[C@@H]1C(=O)O)C(=O)NCCCCN=C(N)N", "note": "(relative stereo) [E-64, L-trans-epoxysuccinyl-leucylamido(4-guanidino)butane, reference compound]", "values": [{"measurement": "proportion of active worms on addition of E-64", "setting": "Meloidogyne spp. J2s; 1 mM E-64, J2s incubated without enzyme", "result": "No change in the proportion of active worms"}]}, {"compound": "Abamectin", "values": [{"measurement": "larvae development allowed", "setting": "larvae in infected soil; 300 μl of abamectin solution (100 mg/l) to 50 g of infected soil", "result": 0, "unit": "%"}, {"measurement": "larvae allowed to develop", "setting": "larvae in infected soil; 2000 (so in the source) of abamectin solution (100 mg/l) to 50 g of infected soil", "result": 75, "unit": "%"}, {"measurement": "nematicidal effect (reduction of nematode infection)", "setting": "M. incognita J2 [1]; nematicide alone, no enzyme", "result": 94, "unit": "%"}]}, {"compound": "Triton x-100", "values": [{"measurement": "effect of blocking agents on nematode mobility", "setting": "M. incognita J2 [2]", "result": "slightly affected nematode mobility"}]}, {"compound": "stem bromelain", "values": [{"measurement": "concentration of bromelain that killed the nematodes", "setting": "Pratylenchus penetrans", "result": 560, "unit": "µM"}, {"measurement": "recovery of mobility", "setting": "Pratylenchus penetrans; after 48 hs", "result": "no recovery of mobility"}, {"measurement": "bromelain concentrations at which no effect was observed", "setting": "Steinernema feltiae", "result": "below 280 uM"}, {"measurement": "effect on S. feltiae movement", "setting": "Steinernema feltiae; high concentrations of bromelain", "result": "affected S. feltiae movement slightly"}, {"measurement": "proportion of active Meloidogyne spp. J2s relative to control", "setting": "Meloidogyne spp. J2s; 25 μM active enzyme", "result": "significant reduction; also recorded: Reductions in the proportion of active worms were evident"}, {"measurement": "reduction of nematode infection of plants", "setting": "M. incognita J2 [1]; two soil applications of enzyme (250 μM papain, 2.2 μM bromelain, 3.3 mM actinidin as printed), soil 16% organic matter, 11 days", "result": 95, "unit": "%"}, {"measurement": "recovery of movement", "setting": "M. incognita J2 [3]; after 40 hs of observation, at the nematicidal concentration", "result": "not able to recover movement"}, {"measurement": "concentration of active bromelain with nematicidal effect", "setting": "M. incognita J2 [3]; in solution without soil", "result": 1, "unit": "mM"}, {"measurement": "nematode motility or behaviour", "setting": "Heterorhabditis megidis; enzyme concentration A (Table 3): actinidin 3.3 mM, bromelain 2.2 mM, papain 250 uM", "result": "All paralysed"}, {"measurement": "nematode motility or behaviour", "setting": "Heterorhabditis megidis; enzyme concentration B: actinidin 1.7 mM, bromelain 1.1 mM, papain 125 uM", "result": "All paralysed"}, {"measurement": "nematode motility or behaviour", "setting": "Heterorhabditis megidis; enzyme concentration C: actinidin 840 uM, bromelain 560 uM, papain 62.5 uM", "result": "All paralysed"}, {"measurement": "effect on H. megidis", "setting": "Heterorhabditis megidis; higher concentrations", "result": "paralysed"}, {"measurement": "effect on H. megidis", "setting": "Heterorhabditis megidis; lower concentrations", "result": "only affected slightly"}]}]}
